Organism: Rattus norvegicus
Assay: Open TG-GATES - Regimen: Daily Repeat
Format: toxicity, organism-based, Sprague-Dawley
Design: regimen Daily Repeat, gender Male, age 6 weeks
Conditions: in vivo, po, 0 mg/kg, […], route gavage, dose level Control; for KIDNEY_L / KIDNEY_R / KIDNEY_TOTAL: tissue Kidney; for LIVER: tissue Liver; for A/G / ALP / ALT / AST / BUN / CRE / Ca / Cl / DBIL / GLC / IP / K / LDH / Na / PL / RALB / TBIL / TC / TG / TP / gamma-GTP: tissue Plasma

`Cn1cnc([N+](=O)[O-])c1Sc1ncnc2nc[nH]c12` [AZATHIOPRINE] was tested, and the Lym (tissue Blood, time 28 day) was 84.8%, the MCH (tissue Blood, time 28 day) was 19.6 pg and the MCHC (tissue Blood, time 28 day) was 34.3%. It also gave an MCV (tissue Blood, time 28 day) of 57.1 fL, a Mono (tissue Blood, time 28 day) of 1.4% and a Neu (tissue Blood, time 28 day) of 12%. It also gave a PT (tissue Blood, time 28 day) of 17.1 s, a Plat (tissue Blood, time 28 day) of 109.1 x10_4/uL and an RBC (tissue Blood, time 28 day) of 784 x10_4/ul. For the same compound, the Ret (tissue Blood, time 28 day) was 2.7%, the WBC (tissue Blood, time 28 day) was 122.9 x10_2/uL and the KIDNEY_L (time 7 day) was 1 g. It also gave a KIDNEY_R (time 7 day) of 1.1 g, a KIDNEY_TOTAL (time 7 day) of 2.1 g and a KIDNEY_L (time 14 day) of 1.1 g. It also gave a KIDNEY_R (time 14 day) of 1.1 g, a KIDNEY_TOTAL (time 14 day) of 2.2 g and a KIDNEY_L (time 28 day) of 1.2 g. For the same compound, the KIDNEY_R (time 28 day) was 1.2 g, the KIDNEY_TOTAL (time 28 day) was 2.4 g and the LIVER (time 7 day) was 11.4 g. The LIVER (time 14 day) was 11.7 g, the LIVER (time 28 day) was 14.3 g and the A/G (time 7 day) was 1.2. For the same compound, the ALP (time 7 day) was 1579.8 IU/L, the ALT (time 7 day) was 42.4 IU/L and the AST (time 7 day) was 72 IU/L. It also gave a BUN (time 7 day) of 20.2 mg/dL, a CRE (time 7 day) of 0.2 mg/dL and a Ca (time 7 day) of 10.8 mg/dL. It also gave a Cl (time 7 day) of 107.2 meq/L, a DBIL (time 7 day) of 0 mg/dL and a GLC (time 7 day) of 201.4 mg/dL. The IP (time 7 day) was 6.6 mg/dL, the K (time 7 day) was 4.3 meq/L and the LDH (time 7 day) was 194.8 IU/L. The Na (time 7 day) was 143.2 meq/L, the PL (time 7 day) was 156.6 mg/dL and the RALB (time 7 day) was 3 g/dL. It also gave a TBIL (time 7 day) of 0.004 mg/dL, a TC (time 7 day) of 80 mg/dL and a TG (time 7 day) of 118.4 mg/dL. For the same compound, the TP (time 7 day) was 5.5 g/dL, the gamma-GTP (time 7 day) was 1.2 IU/L and the A/G (time 14 day) was 1.1. It also gave an ALP (time 14 day) of 1520.8 IU/L, an ALT (time 14 day) of 35.6 IU/L and an AST (time 14 day) of 66.8 IU/L. The BUN (time 14 day) was 17.8 mg/dL, the CRE (time 14 day) was 0.2 mg/dL and the Ca (time 14 day) was 10.4 mg/dL. For the same compound, the Cl (time 14 day) was 107 meq/L, the DBIL (time 14 day) was 0 mg/dL and the GLC (time 14 day) was 178.2 mg/dL. It also gave an IP (time 14 day) of 6.5 mg/dL, a K (time 14 day) of 4.3 meq/L and an LDH (time 14 day) of 153.2 IU/L. It also gave a Na (time 14 day) of 143.6 meq/L, a PL (time 14 day) of 135.6 mg/dL and an RALB (time 14 day) of 3 g/dL. For the same compound, the TBIL (time 14 day) was 0.004 mg/dL, the TC (time 14 day) was 63.4 mg/dL and the TG (time 14 day) was 146.2 mg/dL. The TP (time 14 day) was 5.8 g/dL, the gamma-GTP (time 14 day) was 1.2 IU/L and the A/G (time 28 day) was 1.1. For the same compound, the ALP (time 28 day) was 1240.4 IU/L, the ALT (time 28 day) was 44.8 IU/L and the AST (time 28 day) was 71.6 IU/L. The BUN (time 28 day) was 18.6 mg/dL, the CRE (time 28 day) was 0.2 mg/dL and the Ca (time 28 day) was 10.3 mg/dL. The Cl (time 28 day) was 106.6 meq/L, the DBIL (time 28 day) was 0 mg/dL and the GLC (time 28 day) was 202.4 mg/dL. For the same compound, the IP (time 28 day) was 5.5 mg/dL, the K (time 28 day) was 3.7 meq/L and the LDH (time 28 day) was 175.2 IU/L. The Na (time 28 day) was 141.4 meq/L, the PL (time 28 day) was 145.8 mg/dL and the RALB (time 28 day) was 3.1 g/dL. The TBIL (time 28 day) was 0.01 mg/dL, the TC (time 28 day) was 66 mg/dL and the TG (time 28 day) was 159.8 mg/dL. It also gave a TP (time 28 day) of 6 g/dL and a gamma-GTP (time 28 day) of 1 IU/L.

Source: ChEMBL document CHEMBL3885861, “Open TG-GATES”
